For this assay, the system named is murine CD45+CD4+CD25+ Tregs. Briefly: Treg suppression assay: pre-treated Tregs co-cultured with CFSE-labeled effector T cells, flow cytometry. The class given is cell-based, mouse. As to conditions: Tregs pre-treated 10 nM for 3 hours, 1:4 ratio, 4 days. As to the method: Murine CD45+CD4+CD25+ Tregs and CD45+CD4+CD25− effector T cells were isolated from healthy mice using a StemCell mouse Treg Isolation Kit (StemCell Technologies, Cambridge, MA). The cells were used in two different assays.
First, Tregs that were either pre-treated with 10 nM TLR7-1A agonist for 3 hours or left untreated were co-cultured with CFSE-labeled effector T cells at 1:4 ratio, with or without CD3/CD28 activation beads. Incubation proceeded for 4 days before flow cytometry analysis.

`CCCCc1nc2c(N)nc3ccccc3c2n1CC(C)(C)CO` [TLR7-1A agonist, 3-(4-amino-2-butyl-1H-imidazo[4,5-c]quinolin-1-yl)-2,2-dimethylpropan-1-ol]: the “effect on Treg suppression of CD4+ T cell proliferation” value is reported as “reversed the suppressive activity”.

The values above are taken from patent US20250222117A1, “COMPOUND COMPRISING RALTITREXED OR 5-MTHF LINKED TO A THERAPEUTIC AGENT, COMPOSITION, AND METHOD OF USE” (PURDUE RESEARCH FOUNDATION, priority 2022, published 2025).
